Experimental data: PubChem BioAssay (NCI)
Values joined by “and” are separate entries in the source; they are usually repeats but may differ in a detail not shown here. Equal entries are not always repeated.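 Tested at 5 concentrations; 48 h exposure; 96-well plates; endpoints linearly interpolated, else capped at highest concentration. Abbreviation: GI50, concentration required for 50% inhibition of growth. TGI: concentration producing complete growth inhibition.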

Columns and labels:
Test in all cases: NCI-60 cell line screen, 48 h
COLO 205 colon = tested on: COLO 205 colon
ACHN renal = tested on: ACHN renal
OVCAR-8 ovarian = tested on: OVCAR-8 ovarian
UO-31 renal = tested on: UO-31 renal
SK-MEL-2 melanoma = tested on: SK-MEL-2 melanoma
SNB-75 CNS = tested on: SNB-75 CNS
SF-268 CNS = tested on: SF-268 CNS
MALME-3M melanoma = tested on: MALME-3M melanoma
U251 CNS = tested on: U251 CNS
SK-MEL-28 melanoma = tested on: SK-MEL-28 melanoma

Compound	GI50 (COLO 205 colon)	TGI (COLO 205 colon) [µM]	GI50 (ACHN renal) [µM]	TGI (ACHN renal) [µM]	GI50 (OVCAR-8 ovarian)	TGI (OVCAR-8 ovarian) [µM]	GI50 (UO-31 renal)	TGI (UO-31 renal) [µM]	GI50 (SK-MEL-2 melanoma)	TGI (SK-MEL-2 melanoma) [µM]	GI50 (SNB-75 CNS)	TGI (SNB-75 CNS) [µM]	GI50 (SF-268 CNS)	TGI (SF-268 CNS) [µM]	GI50 (MALME-3M melanoma)	TGI (MALME-3M melanoma) [µM]	GI50 (U251 CNS)	TGI (U251 CNS) [µM]	TGI (SK-MEL-28 melanoma) [µM]	GI50 (SK-MEL-28 melanoma)
COc1ccc(OC)c2c1[nH]c(=O)c1c3ncccc3cn21	2.79 µM	> 100	2.03	> 100	2.53 µM	> 100	2.49 µM	> 100	7.17 µM	> 100	4.39 µM	62	4.21 µM	> 100	5.51 µM	> 100	3.63 µM	27.8		
Cc1cn2c(/C=N/N=C(N)N)c(-c3cccs3)nc2s1	8.16 µM	69.4	2.12	5	13.2 µM	36	16.6 µM	38.9	28.8 µM	> 100			12.9 µM	36.6			1.77 µM	3.86		
Cc1c(C(=O)/C=C/c2ccc(N(C)C)cc2)c(=O)n(-c2ccccc2)n1C		> 100		> 100		> 100		> 100		> 100				> 100		> 100		> 100	> 100	
C[N+](C)(C)CC(=O)N/N=C(\C(=O)NC1=C(Cl)C(=O)c2ccccc2C1=O)C(C#N)c1csc(-c2ccc([N+](=O)[O-])cc2)n1 (centres undefined)		> 100		> 100		> 100		> 100		> 100		> 100		> 100		> 100		> 100	> 100	
COc1cc(Nc2nc3ccccc3cc2C(=O)Nc2ccc(F)c(F)c2)cc(OC)c1OC	1.77 µM	3.78	2.51	7.59	2.77 µM	7.85	2.51 µM	9.35	2.1 µM	5.98	2.27 µM	9.35	3.96 µM	> 100	2.68 µM	6.41	3.36 µM	> 100	> 100	3.54 µM
COc1ccc(OC)c(-c2cc(-c3ccc(Cl)cc3)nn2-c2ccc(S(=O)(=O)NC(C)=O)cc2)c1	18.2 µM	46.7	3.23	11.1	21 µM	84.3	34.8 µM	> 100	26.6 µM	70			21.1 µM	60.9			2.9 µM	10.3	57.9	21.3 µM
SCCSCCCSCCS		> 100				> 100		> 100				> 100		> 100				> 100	> 100	
CO[C@H](C(=O)[C@@H](O)[C@@H](C)O)[C@@H]1Cc2cc3cc(OC4CC(OC5CC(O)C(O)C(C)O5)C(O)C(C)O4)c(C)c(O)c3c(O)c2C(=O)[C@H]1OC1CC(OC2CC(OC3CC(C)(O)C(O)C(C)O3)C(O)C(C)O2)C(O)C(C)O1 (some centres undefined)	0.0144 µg/mL and 0.0182 µg/mL				0.0281 µg/mL and 0.0194 µg/mL		0.132 µg/mL and 0.225 µg/mL		0.0152 µg/mL and 0.0126 µg/mL		0.0141 µg/mL and 0.0224 µg/mL		0.0242 µg/mL and 0.0192 µg/mL		0.0146 µg/mL and 0.0159 µg/mL		0.016 µg/mL and 0.0132 µg/mL			0.02 µg/mL and 0.0182 µg/mL
COc1cc(CNc2ccccc2C(=O)N2CCN(C(=O)c3cc(-c4cc(OC)c(OC)c(OC)c4)n4nc(-c5ccccc5)cc4n3)CC2)cc(OC)c1OC	4.1 µM	15.4	4.24	> 100	4.35 µM	> 100	1.54 µM	> 100	4.37 µM	> 100	1.98 µM	> 100	4.89 µM	> 100			3.37 µM	70.3	> 100	5.24 µM
CCC(CNc1cc(OC)cc2cccnc12)NC1CCCCC1 (centres undefined)	11.3 µM	24.6	49.7	> 100	51.1 µM	> 100	4.47 µM	> 100			21.3 µM	> 100	33.2 µM	> 100	17.2 µM	34.8	43.3 µM	> 100	64.7	25.6 µM
C=C(Nc1ccc([N+](=O)[O-])cc1[N+](=O)[O-])c1c/c(=N\NC(N)=S)c2ccccc2o1		> 100		> 100		> 100		> 100		> 100		> 100		> 100				> 100	> 100	
COc1ccc(C2SCC(=O)N2NC(=O)c2ccc(NC(C)=O)cc2)cc1 (centres undefined)		> 100		> 100		> 100		> 100		> 100		> 100		> 100				> 100	> 100	
COc1cc(CNC2c3cc4c(cc3C(c3cc(OC)c(OC)c(OC)c3)[C@H]3C(=O)OCC23)OCO4)cc(OC)c1OC (some centres undefined)		0.37		> 100				> 100		> 100		> 100		> 100		> 100				
Cc1cc(C)c(Cn2cnc3c(Cl)ncnc32)c(C)c1CCl	79.1 µM	> 100	0.233	14.1	> 100 µM	> 100	> 100 µM	> 100	> 100 µM	> 100			79.7 µM	> 100			2.77 µM	45.4		
CCCCCCCCCCCCCCCCCC(=O)OCC(COC(=O)CCCN)OC(=O)CCCN (centres undefined)		31.1		> 100		37.1		3.63				> 100		45.3		38.2		40.8	34.4	
CSc1n[n+]2c(s1)SCCC2		48.3		> 100		> 100		> 100				> 100		> 100		> 100		> 100	> 100	
COc1ccc(/C=N\Nc2ccc([N+](=O)[O-])cn2)cc1OC					> 100 µM	> 100	3.14 µM	> 100	> 100 µM	> 100	2.9 µM	16.4	> 100 µM	> 100	> 100 µM	> 100	3.56 µM	74.2	> 100	> 100 µM

Compound	GI50 (COLO 205 colon)	TGI (COLO 205 colon) [µM]	GI50 (ACHN renal) [µM]	TGI (ACHN renal) [µM]	GI50 (OVCAR-8 ovarian)	TGI (OVCAR-8 ovarian) [µM]	GI50 (UO-31 renal)	TGI (UO-31 renal) [µM]	GI50 (SK-MEL-2 melanoma)	TGI (SK-MEL-2 melanoma) [µM]	GI50 (SNB-75 CNS)	TGI (SNB-75 CNS) [µM]	GI50 (SF-268 CNS)	TGI (SF-268 CNS) [µM]	GI50 (MALME-3M melanoma)	TGI (MALME-3M melanoma) [µM]	GI50 (U251 CNS)	TGI (U251 CNS) [µM]	TGI (SK-MEL-28 melanoma) [µM]	GI50 (SK-MEL-28 melanoma)
CC(=O)[CH-]C(=O)c1ccccc1.CC(=O)[CH-]C(=O)c1ccccc1.CCOCC[O-].CCOCC[O-].[Ti+4]			31.6	> 100	19.6 µM	41.7	17.6 µM	49.5	14.2 µM	29.6	16.6 µM	43.8	13.8 µM	34.8	16.9 µM	43.7	16 µM	42.2	27.6	10.8 µM
Cc1ccc(S(=O)(=O)NNC(=O)c2cc(C)c(C)cc2N)cc1		> 100		> 100		> 100		> 100				> 100				> 100		> 100	> 100	
COc1ccc2nc3cc([N+](=O)[O-])ccc3c(NCCCN(C)C)c2c1	0.221 µM	2.17	0.418	3.09	0.0895 µM	1.59	1.63 µM	6.1			0.31 µM	1.53	0.295 µM	1.74	0.287 µM	0.878	0.0441 µM	0.375	2.87	0.504 µM
N#CCN/C=C\C(=O)c1ccc(Cl)cc1	32.7 µM	> 100			38.4 µM	> 100	42.1 µM	> 100	20 µM	53.9			26.7 µM	> 100	17.9 µM	53.6	70.7 µM	> 100	> 100	40.1 µM
CNC(=O)Cc1nc(-c2cccc(NS(=O)(=O)c3c(F)cccc3F)c2F)c(-c2ccnc(Nc3ccccc3)n2)s1	0.0188 µM	> 30.2	0.889	> 50	7.32 µM	> 50	1.22 µM	13.7	0.419 µM	> 46	0.6 µM	49.8	6.98 µM	> 50			22.7 µM	> 50	> 50	0.0185 µM
CCN(CC)CCCC(C)N=C(C1=C(C(=NC(C)CCCN(CC)CC)c2cccc(OC)c2)C(=O)NC1=O)c1cccc(OC)c1 (centres undefined)	0.772 µM	1.56			1.18 µM	6.9	1.39 µM	4.27			1.65 µM	6.81	1.97 µM	8.29	1.11 µM	2.07	1.06 µM	2.5		
COC(=O)c1cc(O)c2c(c1C(=O)OC)C[C@H]1[C@@H]3CC=C4C[C@@H](O)CC[C@]4(C)[C@H]3CC[C@]21C			3.64	17	3.33 µM	16.9	2.18 µM	4.26	2.79 µM	5.6	9.75 µM	55.9	3.13 µM	13	2.71 µM	8.15	1.93 µM	7.82	8.59	2.71 µM
CCOC(=O)C(C)(C)Oc1ccc(/C=C/C(=O)c2ccc(Cl)cc2)cc1		53.2				41.3		> 100		39		32.6		37.1		34.6		31.9	34.7	
C=C[C@@]1(O)CCCC2=C(C(=O)OCC)CC[C@]21C		> 100		> 100		> 100		> 100		> 100				> 100		> 100		> 100	> 100	
O=[N+]([O-])C1Cc2ccccc2OC1c1ccccc1 (centres undefined)		> 100		> 100		> 100		> 100				55.5		> 100		> 100		> 100	> 100	
CN(C)c1nc(=Nc2cccc(Cl)c2)ss1				37.2		25.6		69.8		42.1		66.3		30.4		27.1		24.1	25.8	
CCOC(=N)/C(=C1\OC(N)=C(c2ccc(Cl)cc2)C1=O)c1ccc(Cl)cc1		30.2		51		28.7		31.3				38.5		31.3		28.2		30.8	31.7	
O=C(OCc1ncc(-c2ccc(C(F)(F)F)cc2)c(NC2CCCCCC2)n1)c1c(F)c(F)c(F)c(F)c1F	18 µM	37.8	14.2	29.2	12.2 µM	34	8.12 µM	21.3			13 µM	25.9	12.9 µM	28	16.6 µM	32.6			24.7	11.7 µM
Cc1cc(N2CCSCC2)nc(NC2CCCC(Nc3ccnc4cc(Cl)ccc34)C2)n1 (centres undefined)			2.06	4.46	2.5 µM	5.51	1.41 µM	2.77			1.28 µM	2.94	1.38 µM	3.13	1.8 µM	3.43	1.91 µM	3.7	3.7	1.9 µM
CCOc1cccc2ccc[n+](CC)c12		> 100		> 100		> 100		> 100				> 100		77.9		> 100			> 100	
COc1cccc(/C=C/C(=O)c2ccc(Cl)cc2Cl)c1	8.85 µM	18.4	14.3	39.2	9.46 µM	22.7	17.4 µM	> 50	20.3 µM	> 50	13.9 µM	36.7	11.2 µM	27.4			9.19 µM	> 50	30.2	12.9 µM
O=c1[nH]c2cc(Cl)ccc2nc1/C(=N\O)C(O)c1ccc([N+](=O)[O-])cc1 (centres undefined)		> 100		> 100		> 100		> 100		> 100		> 100		> 100		> 100		> 100		
